# US7829560B2, “1,4-disubstituted naphthalenes as inhibitors of P38 MAP kinase” (Arqule, Inc., priority 2004, dated 2010)
# Legend:
# [1] = tested on: TNFα release from THP-1 cells; assay: Inhibition of TNFα release from LPS-stimulated THP-1 cells, ELISA; type: cell-based; conditions: Homo sapiens, THP-1, THP-1 cells, read-out: [CELL] THP-1, IC50, TNF ALPHA, ELISA
# Outline: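 Human THP-1 monocytes, 10^6 cells/ml in RPMI with 10% FBS, no serum or 1% HSA, preincubated 30 min at 37 °C with compound (≤0.5% DMSO), then stimulated with 10 μg/ml LPS for 18 h. Supernatant TNFα measured by ELISA; IC50 from non-linear dose-response regression.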
# p38α = target: T1, p38α (Homo sapiens, UniProt Q16539); assay: p38 MAP Kinase assay: inhibition of ATF2 phosphorylation, ELISA; type: biochemical; conditions: ATF2 phosphorylation; read-out: [ENZ] P38 ALPHA, IC50, ELISA
# T1 construct: p38 MAP Kinases are recombinant human full-length proteins with an amino-terminal GST fusion; GST (N); purchased Upstate Biotechnology Inc; host or cells: E. coli
# Outline: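 GST-tagged full-length human p38 MAP kinase with GST-ATF2 (aa 19–96; 1.25 μM) and 40 μM ATP in HEPES pH 7.5 buffer, without (Method I) or with (Method II) 1% human serum albumin. Compound pre-incubated 15 min at room temperature; reaction 30 min at 37 °C; ATF2 Thr69 phosphorylation measured by ELISA (A450).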
# T1 sequence (Q16539 whole entry, the tested form may be a part): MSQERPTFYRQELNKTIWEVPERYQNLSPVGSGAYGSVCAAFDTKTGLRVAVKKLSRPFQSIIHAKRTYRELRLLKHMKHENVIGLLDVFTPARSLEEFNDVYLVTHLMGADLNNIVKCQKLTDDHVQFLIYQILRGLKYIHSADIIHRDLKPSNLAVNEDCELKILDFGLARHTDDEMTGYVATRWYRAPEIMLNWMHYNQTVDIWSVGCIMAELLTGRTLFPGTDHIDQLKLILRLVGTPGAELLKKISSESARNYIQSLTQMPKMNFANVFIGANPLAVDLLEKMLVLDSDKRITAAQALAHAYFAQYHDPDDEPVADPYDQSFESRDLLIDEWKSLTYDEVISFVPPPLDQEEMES
SMILES,IC50 [1],melting point,IC50 (p38α)
"O=C(Nc1ccc(OCCCc2cccnc2)c2ccccc12)c1cc(F)cc(N2CCOCC2)c1 [Compound B222, 3-Fluoro-5-morpholin-4-yl-N-[4-(3-pyridin-3-ylpropoxy)-1-naphthyl]benzamide]",9380 nM,64 to 66 °C,820 nM
"O=C(Nc1ccc(OCCN2CCOCC2)c2ccccc12)c1cc(F)cc(OC2CCCC2)c1 [Compound B225, 3-(Cyclopentyloxy)-5-fluoro-N-[4-(2-morpholin-4-ylethoxy)-1-naphthyl]benzamide]",4090 nM,117 to 119 °C,439 nM
"CC1CCC(Oc2cc(F)cc(C(=O)Nc3ccc(OCCN4CCOCC4)c4ccccc34)c2)C1 (stereo not drawn) [Compound B227, 3-Fluoro-5-[(3-methylcyclopentyl)oxy]-N-[4-(2-morpholin-4-ylethoxy)-1-naphthyl]benzamide]",4120 nM,65 to 66 °C,808 nM
"Cc1ncsc1CCOc1ccc(NC(=O)c2cc(F)cc(N3CCOCC3)c2)c2ccccc12 [Compound B231, 3-Fluoro-N-{4-[2-(4-methyl-1,3-thiazol-5-yl)ethoxy]-1-naphthyl}-5-morpholin-4-ylbenzamide]",193 nM,186 to 187 °C,27.7 nM
"CSc1nccc(Oc2ccc(NC(=O)c3cc(F)cc(N4CCOCC4)c3)c3ccccc23)n1 [Compound B246, 3-Fluoro-N-(4-{[2-(methylthio)pyrimidin-4-yl]oxy}-1-naphthyl)-5-morpholin-4-ylbenzamide]",69.4 nM,189 to 190 °C,40.2 nM
"CC1CCN(c2cc(F)cc(C(=O)Nc3ccc(OCc4n[nH]c(=O)n4-c4ccccc4)c4ccccc34)c2)CC1 [Compound B263, 3-Fluoro-5-(4-methyl-piperidin-1-yl)-N-[4-(5-oxo-4-phenyl-4,5-dihydro-1H-[1,2,4]triazol-3-ylmethoxy)-naphthalen-1-yl]-benzamide]",4260 nM,140 to 143 °C,5080 nM
"CS(=O)(=O)c1nccc(Oc2ccc(NC(=O)c3cc(F)cc(N4CCOCC4)c3)c3ccccc23)n1 [Compound B268, 3-Fluoro-N-(4-{[2-(methylsulfonyl)pyrimidin-4-yl]oxy}-1-naphthyl)-5-morpholin-4-ylbenzamide]",1370 nM,173 to 175 °C,519 nM
"CSc1nccc(Oc2ccc(NC(=O)c3cc(F)cc(OC4CCCC4)c3)c3ccccc23)n1 [Compound B304, 3-(Cyclopentyloxy)-5-fluoro-N-(4-{[2-(methylthio)pyrimidin-4-yl]oxy}-1-naphthyl)benzamide]",239 nM,115 to 116 °C,225 nM
"CSc1nccc(Oc2ccc(NC(=O)c3cccc(OC(C)(C)C)c3)c3ccccc23)n1 [Compound B306, 3-tert-Butoxy-N-[4-(2-methylsulfanyl-pyrimidin-4-yloxy)-naphthalen-1-yl]-benzamide]",152 nM,135 to 136 °C,74.5 nM
"CC(C)CNc1nccc(Oc2ccc(NC(=O)c3cc(F)cc(N4CCOCC4)c3)c3ccccc23)n1 [Compound B318, 3-Fluoro-N-(4-{[2-(isobutylamino)pyrimidin-4-yl]oxy}-1-naphthyl)-5-morpholin-4-ylbenzamide]",38.3 nM,96 to 97 °C,7.2 nM
"COCCNc1nccc(Oc2ccc(NC(=O)c3cc(F)cc(N4CCOCC4)c3)c3ccccc23)n1 [Compound B319, 3-Fluoro-N-[4-({2-[(2-methoxyethyl)amino]pyrimidin-4-yl}oxy)-1-naphthyl]-5-morpholin-4-ylbenzamide]",59.3 nM,95 to 97 °C,1 nM
"O=C(Nc1ccc(Oc2ccnc(NC3CC3)n2)c2ccccc12)c1cc(F)cc(N2CCOCC2)c1 [Compound B321, N-(4-{[2-(Cyclopropylamino)pyrimidin-4-yl]oxy}-1-naphthyl)-3-fluoro-5-morpholin-4-ylbenzamide]",76.1 nM,118 to 120 °C,3.1 nM

# The next lines start with the values.
IC50 [1],melting point,IC50 (p38α),SMILES
5660 nM,182 to 184 °C,821 nM,"O=C(Nc1ccc(OCc2ccncc2)c2ccccc12)c1cc(F)cc(OC2CCOCC2)c1 [Compound B229, 3-Fluoro-N-[4-(pyridin-4-ylmethoxy)-1-naphthyl]-5-(tetrahydro-2H-pyran-4-yloxy)benzamide]"
630 nM,69 to 71 °C,25.7 nM,"O=C(Nc1ccc(OCc2ccncc2)c2ccccc12)c1cc(F)cc(N2CCCCC2)c1 [Compound B230, 3-Fluoro-5-piperidin-1-yl-N-[4-(pyridin-4-ylmethoxy)-1-naphthyl]benzamide]"
4280 nM,203 to 206 °C,7860 nM,"CC1=NC(C)(COc2ccc(NC(=O)c3cc(F)cc(N4CCOCC4)c3)c3ccccc23)CO1 (stereo not drawn) [Compound B232, N-{4-[(2,4-Dimethyl-4,5-dihydro-1,3-oxazol-4-yl)methoxy]-1-naphthyl}-3-fluoro-5-morpholin-4-ylbenzamide]"
557 nM,176 to 178 °C,125 nM,"O=C(Nc1ccc(OCc2ccncc2)c2ccccc12)c1cc(F)cc(OC2CCCCC2)c1 [Compound B235, 3-(Cyclohexyloxy)-5-fluoro-N-[4-(pyridin-4-ylmethoxy)-1-naphthyl]benzamide]"
780 nM,142 to 143 °C,587 nM,"CSc1nccc(Oc2ccc(NC(=O)c3cc(F)cc(N4CCC(C)CC4)c3)c3ccccc23)n1 [Compound B247, 3-Fluoro-5-(4-methylpiperidin-1-yl)-N-(4-{[2-(methylthio)pyrimidin-4-yl]oxy}-1-naphthyl)benzamide]"
157 nM,104 to 106 °C,46.6 nM,"O=C(Nc1ccc(Oc2ccnc(N3CCOCC3)n2)c2ccccc12)c1cc(F)cc(N2CCOCC2)c1 [Compound B248, 3-Fluoro-5-morpholin-4-yl-N-{4-[(2-morpholin-4-ylpyrimidin-4-yl)oxy]-1-naphthyl}benzamide]"
12.4 nM,121 to 123 °C,13.9 nM,"O=C(Nc1ccc(Oc2ccnc(NCc3ccccc3)n2)c2ccccc12)c1cc(F)cc(N2CCOCC2)c1 [Compound B249, N-(4-{[2-(Benzylamino)pyrimidin-4-yl]oxy}-1-naphthyl)-3-fluoro-5-morpholin-4-ylbenzamide]"
30.8 nM,127 to 129 °C,31.9 nM,"O=C(Nc1ccc(Oc2ccnc(NCCO)n2)c2ccccc12)c1cc(F)cc(N2CCOCC2)c1 [Compound B252, 3-Fluoro-N-[4-({2-[(2-hydroxyethyl)amino]pyrimidin-4-yl}oxy)-1-naphthyl]-5-morpholin-4-ylbenzamide]"
1940 nM,260 °C,578 nM,"CCn1c(COc2ccc(NC(=O)c3cc(F)cc(N4CCOCC4)c3)c3ccccc23)n[nH]c1=O [Compound B255, N-[4-(4-Ethyl-5-oxo-4,5-dihydro-1H-[1,2,4]triazol-3-ylmethoxy)-naphthalen-1-yl]-3-fluoro-5-morpholin-4-yl-benzamide]"
177 nM,180 to 181 °C,189 nM,"CSc1nccc(Oc2ccc(NC(=O)c3cc(F)cc(N4CCCC4)c3)c3ccccc23)n1 [Compound B264, 3-Fluoro-N-(4-{[2-(methylthio)pyrimidin-4-yl]oxy}-1-naphthyl)-5-pyrrolidin-1-ylbenzamide]"
29.2 nM,216 to 217 °C,56.9 nM,"COc1nccc(Oc2ccc(NC(=O)c3cc(F)cc(N4CCOCC4)c3)c3ccccc23)n1 [Compound B267, 3-Fluoro-N-{4-[(2-methoxypyrimidin-4-yl)oxy]-1-naphthyl}-5-morpholin-4-ylbenzamide]"
6420 nM,135 to 138 °C,1650 nM,"CSc1nccc(-c2ccc(NC(=O)c3cc(F)cc(N4CCOCC4)c3)c3ccccc23)n1 [Compound B270, 3-Fluoro-N-[4-(2-methylsulfanyl-pyrimidin-4-yl)-naphthalen-1-yl]-5-morpholin-4-yl-benzamide]"
232 nM,130 to 132 °C,275 nM,"CSc1nccc(Oc2ccc(NC(=O)c3cc(F)cc(OC4CCCCC4)c3)c3ccccc23)n1 [Compound B303, 3-(Cyclohexyloxy)-5-fluoro-N-(4-{[2-(methylthio)pyrimidin-4-yl]oxy}-1-naphthyl)benzamide]"
179 nM,170 to 172 °C,56 nM,"CSc1nccc(Oc2ccc(NC(=O)c3cc(F)cc(N4CCCCC4)c3)c3ccccc23)n1 [Compound B311, 3-Fluoro-N-(4-{[2-(methylthio)pyrimidin-4-yl]oxy}-1-naphthyl)-5-piperidin-1-ylbenzamide]"
190 nM,115 to 117 °C,7.1 nM,"O=C(Nc1ccc(Oc2ccnc(N3CCC4(CC3)OCCO4)n2)c2ccccc12)c1cc(F)cc(N2CCOCC2)c1 [Compound B320, N-(4-{[2-(1,4-Dioxa-8-azaspiro[4.5]dec-8-yl)pyrimidin-4-yl]oxy}-1-naphthyl)-3-fluoro-5-morpholin-4-ylbenzamide]"
